Laboratory results as given in PMC8155022 (Scientific Reports, 2021).
“Also recorded” adds a separate entry of the source.

How the values were obtained:
[1] = target: T1, Y2 (h) (Homo sapiens, UniProt P49146); assay: Cerep panel; type: binding
T1 construct: purchased Cerep (receptors, ion channels, transporters); Eurofins Panlabs (kinases)
Procedure: (§1) A panel of 52 different receptors, ion channels and transporters was tested by Cerep, Inc. (Redmond, WA).

[2] = target: T2, VIP1 (h) (VPAC1) (Homo sapiens, UniProt P32241); assay: Cerep panel; type: binding
T2 construct: purchased Cerep (receptors, ion channels, transporters); Eurofins Panlabs (kinases)
T2 sequence (P32241 31-457): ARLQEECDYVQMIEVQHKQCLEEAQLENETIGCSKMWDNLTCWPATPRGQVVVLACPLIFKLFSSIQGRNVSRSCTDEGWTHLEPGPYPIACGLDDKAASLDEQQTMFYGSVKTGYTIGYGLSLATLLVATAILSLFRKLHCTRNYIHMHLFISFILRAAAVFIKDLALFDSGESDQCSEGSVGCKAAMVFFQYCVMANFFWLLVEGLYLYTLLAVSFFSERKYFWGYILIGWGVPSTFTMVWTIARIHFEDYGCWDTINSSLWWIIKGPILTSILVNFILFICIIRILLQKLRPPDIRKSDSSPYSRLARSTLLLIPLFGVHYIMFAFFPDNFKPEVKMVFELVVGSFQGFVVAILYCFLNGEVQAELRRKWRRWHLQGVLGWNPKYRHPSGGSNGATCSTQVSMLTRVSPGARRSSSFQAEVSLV
Procedure: as §1

[3] = target: T3, delta 2 (h) (DOP) (Homo sapiens, UniProt P41143); assay: Cerep panel; type: binding
T3 construct: purchased Cerep (receptors, ion channels, transporters); Eurofins Panlabs (kinases)
T3 sequence (P41143 whole entry): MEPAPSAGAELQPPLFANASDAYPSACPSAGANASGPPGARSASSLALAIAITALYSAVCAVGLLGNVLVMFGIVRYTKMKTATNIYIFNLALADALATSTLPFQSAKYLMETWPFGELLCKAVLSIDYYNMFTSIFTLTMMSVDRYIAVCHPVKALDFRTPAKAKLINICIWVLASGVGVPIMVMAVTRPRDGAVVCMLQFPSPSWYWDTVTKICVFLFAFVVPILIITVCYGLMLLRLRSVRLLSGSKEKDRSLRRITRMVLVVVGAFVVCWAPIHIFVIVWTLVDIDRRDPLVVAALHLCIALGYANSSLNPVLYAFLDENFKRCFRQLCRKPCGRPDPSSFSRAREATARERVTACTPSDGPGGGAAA
Procedure: as §1

[4] = target: T4, 5-HT3 (h) (Homo sapiens, UniProt P46098); assay: Cerep panel; type: binding
T4 construct: purchased Cerep (receptors, ion channels, transporters); Eurofins Panlabs (kinases)
T4 sequence (P46098 24-478): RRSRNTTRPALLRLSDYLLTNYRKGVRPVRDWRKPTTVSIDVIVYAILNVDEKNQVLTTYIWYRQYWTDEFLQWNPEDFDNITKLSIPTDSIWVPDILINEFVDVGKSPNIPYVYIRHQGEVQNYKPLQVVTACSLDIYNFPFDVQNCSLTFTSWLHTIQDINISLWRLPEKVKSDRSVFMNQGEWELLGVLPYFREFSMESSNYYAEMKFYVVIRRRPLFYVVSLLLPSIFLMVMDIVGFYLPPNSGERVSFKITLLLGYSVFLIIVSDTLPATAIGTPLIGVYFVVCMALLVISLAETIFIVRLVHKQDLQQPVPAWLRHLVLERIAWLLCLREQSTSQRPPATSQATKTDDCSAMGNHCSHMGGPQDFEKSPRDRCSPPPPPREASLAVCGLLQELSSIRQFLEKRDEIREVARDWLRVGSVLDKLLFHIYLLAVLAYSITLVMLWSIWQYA
Procedure: as §1

[5] = target: T5, NK2 (h) (Homo sapiens, UniProt P21452); assay: Cerep panel; type: binding
T5 construct: purchased Cerep (receptors, ion channels, transporters); Eurofins Panlabs (kinases)
T5 sequence (P21452 1-398): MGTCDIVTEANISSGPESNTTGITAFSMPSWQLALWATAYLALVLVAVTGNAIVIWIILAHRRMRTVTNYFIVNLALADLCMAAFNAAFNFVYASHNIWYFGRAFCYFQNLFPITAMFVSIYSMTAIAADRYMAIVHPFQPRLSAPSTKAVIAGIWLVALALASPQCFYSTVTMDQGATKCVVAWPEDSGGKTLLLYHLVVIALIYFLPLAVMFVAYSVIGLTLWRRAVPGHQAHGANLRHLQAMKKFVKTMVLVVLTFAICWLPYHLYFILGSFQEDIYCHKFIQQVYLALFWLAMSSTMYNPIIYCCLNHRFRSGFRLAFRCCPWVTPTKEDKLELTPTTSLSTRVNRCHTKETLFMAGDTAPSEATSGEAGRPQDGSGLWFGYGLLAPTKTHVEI
Procedure: 28 GPCRs were evaluated through cAMP or calcium FLIPR assays[67]. A panel of 52 different receptors, ion channels and transporters was tested by Cerep, Inc. (Redmond, WA). Kinase selectivity was conducted by Eurofins Panlabs Inc (St Charles, MO).

[6] = target: T6, PPARα (Homo sapiens, UniProt Q07869); assay: nuclear receptor cellular GAL4 reporter assay; type: cell-based; settings: agonist and antagonist mode; read-out: potency in agonist and antagonist mode
T6 construct: expressed in transfected cells

[7] = target: T7, Ret(h) (Homo sapiens, UniProt P07949); assay: Kinase panel; type: biochemical
T7 construct: purchased Cerep (receptors, ion channels, transporters); Eurofins Panlabs (kinases)
T7 sequence (P07949 29-1114): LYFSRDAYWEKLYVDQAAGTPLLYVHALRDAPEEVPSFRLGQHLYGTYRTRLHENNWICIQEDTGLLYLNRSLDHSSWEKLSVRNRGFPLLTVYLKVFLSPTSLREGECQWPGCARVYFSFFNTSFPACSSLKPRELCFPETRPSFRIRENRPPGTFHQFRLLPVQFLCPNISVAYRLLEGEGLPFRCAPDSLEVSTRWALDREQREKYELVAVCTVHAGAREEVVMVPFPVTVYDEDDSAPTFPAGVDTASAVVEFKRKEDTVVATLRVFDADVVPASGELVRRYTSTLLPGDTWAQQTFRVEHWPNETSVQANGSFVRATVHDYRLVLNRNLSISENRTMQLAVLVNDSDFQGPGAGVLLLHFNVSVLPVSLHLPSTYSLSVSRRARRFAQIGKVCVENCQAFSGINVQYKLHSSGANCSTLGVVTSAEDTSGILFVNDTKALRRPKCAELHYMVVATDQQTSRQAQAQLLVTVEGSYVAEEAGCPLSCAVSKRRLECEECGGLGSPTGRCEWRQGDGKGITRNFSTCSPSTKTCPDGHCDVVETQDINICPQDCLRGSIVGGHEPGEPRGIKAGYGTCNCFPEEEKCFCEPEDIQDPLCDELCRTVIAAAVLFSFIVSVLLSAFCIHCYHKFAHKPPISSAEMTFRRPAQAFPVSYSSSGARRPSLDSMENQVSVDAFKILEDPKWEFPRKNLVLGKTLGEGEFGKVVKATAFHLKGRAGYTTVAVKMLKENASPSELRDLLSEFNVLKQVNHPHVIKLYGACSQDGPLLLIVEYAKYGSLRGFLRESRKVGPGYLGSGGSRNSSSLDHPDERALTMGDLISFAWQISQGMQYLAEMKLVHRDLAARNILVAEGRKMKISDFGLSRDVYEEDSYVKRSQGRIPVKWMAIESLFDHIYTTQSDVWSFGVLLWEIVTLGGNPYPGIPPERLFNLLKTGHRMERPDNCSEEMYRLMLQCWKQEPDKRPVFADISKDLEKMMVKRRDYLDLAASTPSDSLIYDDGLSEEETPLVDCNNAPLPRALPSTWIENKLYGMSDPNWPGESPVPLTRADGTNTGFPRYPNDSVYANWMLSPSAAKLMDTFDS
Procedure: (§2) Kinase selectivity was conducted by Eurofins Panlabs Inc (St Charles, MO).

[8] = test system: healthy human volunteers; assay: phase 1 single ascending dose study, safety
Procedure: Randomized, double-blind, placebo-controlled, single center study was designed by Janssen Immunology Clinical Development team and approved by Independent Ethics Committee/Institutional Review Board (Comité voor Medische Ethiek UZA, Wilrijkstraat 10, Edegem, 2650, Belgium). The study was conducted in Janssen’s Clinical Pharmacology Unit in Belgium from May 18th 2017 to April 5th 2018, according to Declaration of Helsinki principles and International Committee on Harmonisation Good Clinical Practice guidelines. […] Participants were healthy males and females of non-childbearing potential (postmenopausal or permanently sterile), aged 18 to 60 years inclusive, with a body mass index of 18 and 30 kg/m^2 and body weight of not less than 50 kg. Informed consent was obtained from all participants. No formal sample size and power calculations were performed. The number of participants chosen for this study was considered adequate to provide a preliminary safety assessment and PK assessment. The randomization was based on a computer-generated treatment randomization schedule prepared and balanced by using randomly permuted blocks. […] Participants and study site staff members including the Investigator were blinded to treatment allocation during entire study period. […] Cohorts 1 to 4 received single oral doses of 10, 30, 100 and 200 mg after an overnight fast, and cohort 5 were dosed 100 mg within 30 min of the start of a standard high fat meal. […] For all parts of the study, adverse events and concomitant medications were assessed and recorded from screening through follow-up (day 14–21 post-dose). The following safety measures were assessed at various time points during the study: medical history, physical examination, neurologic examination, electrocardiogram (12-lead ECG, or continuous telemetry), and vital signs (blood pressure, heart rate, respiratory rate, and temperature). […] This was a Phase 1 first-in-human study with limited sample size, the data generated was descriptive in nature, and no formal statistical hypothesis testing was planned. Although there was no formal interim analysis, assessments of PK and PD samples by cohort and safety assessments were conducted and reviewed during the study to plan dose-escalation and future development.

[9] = target: T8, CK2(h) (Homo sapiens, UniProt P68400); assay: Kinase panel; type: biochemical
T8 construct: purchased Cerep (receptors, ion channels, transporters); Eurofins Panlabs (kinases)
T8 sequence (P68400 whole entry): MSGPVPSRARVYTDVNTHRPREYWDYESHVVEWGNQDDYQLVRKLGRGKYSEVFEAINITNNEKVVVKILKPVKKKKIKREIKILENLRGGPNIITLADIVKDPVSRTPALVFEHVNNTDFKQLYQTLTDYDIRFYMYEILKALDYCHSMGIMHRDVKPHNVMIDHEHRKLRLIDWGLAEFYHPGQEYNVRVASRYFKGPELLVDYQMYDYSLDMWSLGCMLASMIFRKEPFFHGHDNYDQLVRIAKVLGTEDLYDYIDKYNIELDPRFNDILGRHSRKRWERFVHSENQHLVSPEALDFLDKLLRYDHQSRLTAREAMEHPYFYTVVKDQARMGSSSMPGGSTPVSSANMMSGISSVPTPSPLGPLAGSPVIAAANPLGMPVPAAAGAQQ
T8 sequence (P67870 whole entry partner): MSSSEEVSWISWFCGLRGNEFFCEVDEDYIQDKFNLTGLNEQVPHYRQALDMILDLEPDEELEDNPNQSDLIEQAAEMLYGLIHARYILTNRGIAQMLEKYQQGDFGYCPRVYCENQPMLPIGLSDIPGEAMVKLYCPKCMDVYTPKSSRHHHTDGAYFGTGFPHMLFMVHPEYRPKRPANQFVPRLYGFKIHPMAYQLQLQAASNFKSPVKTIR
Procedure: as §2

[10] = test system: human CD4+ T cells under Th1 conditions; assay: in vitro human Th1 differentiation, IFNγ production
Procedure: On day 4, supernatants were analyzed for IL-17A, IL-17F, IL-22 and IFNγ production.
Total CD4^+ T cells were isolated from peripheral blood mononuclear cells (PBMCs) of healthy donors using a CD4^+ T cell Isolation Kit II (Miltenyl Biotec, Auburn, CA), following the manufacturer’s instructions.
In vitro human Th17 and Th1 differentiation
Total CD4+ T cells were isolated from the peripheral blood mononuclear cells (PBMCs) of healthy donors
using a CD4+ T cell Isolation Kit II (Miltenyl Biotec, Auburn, CA), following the manufacturer’s
instructions. Isolated T cells were resuspended in culture medium and added to a 96-well plate at 1×105
beads (prepared using human T cell activation/expansion kit, Miltenyi Biotec) at final concentration of
3x10^6/mL, and cocktail for either Th17 differentiation (10 µg/mL anti-IL-4, 10 µg/mL anti-IFN, 10 ng/mL
IL-1β, 10 ng/mL IL-23, 50 ng/mL IL-6, 3 ng/mL TGFβ and 20 U/mL IL-2), or for Th1 differentiation (10
µg/mL anti-IL-4, 10 ng/mL IL-12, and 20 U/mL IL-2). Cells were cultured at 37°C and 5% CO2 for 3 days.
Supernatants were assayed for accumulated cytokines using MSD multi-spot assay (Meso Scale
Discovery, Rockville, MD) or R&D ELISA kit.

[11] = target: T9, ROCK-I(h) (Homo sapiens, UniProt Q13464); assay: Kinase panel; type: biochemical
T9 construct: purchased Cerep (receptors, ion channels, transporters); Eurofins Panlabs (kinases)
T9 sequence (Q13464 whole entry): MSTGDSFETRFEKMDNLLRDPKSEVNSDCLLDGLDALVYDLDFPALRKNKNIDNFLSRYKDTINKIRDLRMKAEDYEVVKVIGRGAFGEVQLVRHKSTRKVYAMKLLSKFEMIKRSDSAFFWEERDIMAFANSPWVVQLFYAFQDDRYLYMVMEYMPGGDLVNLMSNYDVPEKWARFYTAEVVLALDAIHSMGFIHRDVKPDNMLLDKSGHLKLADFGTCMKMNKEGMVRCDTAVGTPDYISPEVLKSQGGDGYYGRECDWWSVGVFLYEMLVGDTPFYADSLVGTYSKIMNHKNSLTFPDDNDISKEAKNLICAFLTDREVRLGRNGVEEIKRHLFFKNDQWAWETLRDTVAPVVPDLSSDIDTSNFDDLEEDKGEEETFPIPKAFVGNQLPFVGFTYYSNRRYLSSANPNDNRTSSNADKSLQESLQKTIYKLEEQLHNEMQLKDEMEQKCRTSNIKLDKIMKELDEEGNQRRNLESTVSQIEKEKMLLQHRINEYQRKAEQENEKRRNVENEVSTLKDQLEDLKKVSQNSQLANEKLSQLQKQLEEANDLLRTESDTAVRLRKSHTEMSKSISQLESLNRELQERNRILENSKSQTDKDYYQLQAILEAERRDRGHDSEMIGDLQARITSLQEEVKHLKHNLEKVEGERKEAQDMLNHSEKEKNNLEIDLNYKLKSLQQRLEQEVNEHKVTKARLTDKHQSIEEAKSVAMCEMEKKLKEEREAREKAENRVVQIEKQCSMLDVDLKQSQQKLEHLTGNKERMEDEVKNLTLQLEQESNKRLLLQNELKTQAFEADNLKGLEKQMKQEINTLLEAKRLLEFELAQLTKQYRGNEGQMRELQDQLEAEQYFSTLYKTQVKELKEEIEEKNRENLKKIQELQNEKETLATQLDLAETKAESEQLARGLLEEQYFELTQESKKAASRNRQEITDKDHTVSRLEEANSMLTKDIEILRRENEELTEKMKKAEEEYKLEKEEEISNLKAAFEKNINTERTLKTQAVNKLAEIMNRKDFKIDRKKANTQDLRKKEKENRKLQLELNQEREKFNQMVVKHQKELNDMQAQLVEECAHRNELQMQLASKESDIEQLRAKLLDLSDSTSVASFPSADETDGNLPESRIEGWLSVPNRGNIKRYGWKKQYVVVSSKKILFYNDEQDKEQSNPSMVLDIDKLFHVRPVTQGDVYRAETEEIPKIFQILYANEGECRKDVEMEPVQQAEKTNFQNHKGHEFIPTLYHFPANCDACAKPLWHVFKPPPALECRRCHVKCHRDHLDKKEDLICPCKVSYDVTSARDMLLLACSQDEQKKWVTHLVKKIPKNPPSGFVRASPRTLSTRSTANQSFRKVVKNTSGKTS
Procedure: as §2

[12] = 100 mg (fasted) n = 9, single oral dose
[13] = 100 mg (fed) n = 9, single oral dose

T1 sequence (P49146 whole entry): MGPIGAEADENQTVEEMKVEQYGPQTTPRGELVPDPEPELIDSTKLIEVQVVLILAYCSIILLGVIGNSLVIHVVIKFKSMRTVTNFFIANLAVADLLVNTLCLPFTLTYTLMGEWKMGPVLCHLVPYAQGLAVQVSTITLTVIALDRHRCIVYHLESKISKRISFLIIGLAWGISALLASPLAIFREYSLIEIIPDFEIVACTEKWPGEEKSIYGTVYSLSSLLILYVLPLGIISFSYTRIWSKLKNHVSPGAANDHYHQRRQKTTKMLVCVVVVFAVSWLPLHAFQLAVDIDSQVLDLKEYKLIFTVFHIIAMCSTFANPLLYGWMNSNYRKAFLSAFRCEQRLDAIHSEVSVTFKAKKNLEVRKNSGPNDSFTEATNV

CC1CCCN1C(=O)c1nc(C(=O)NCC(C)(C)O)sc1-c1ccc(C(O)(C(F)(F)F)C(F)(F)F)c(Cl)c1Cl (stereo not drawn) [JNJ-61803534]
inhibition at 1 µM [1]: < 10%
inhibition at 10 µM [1]: < 10%
inhibition at 1 µM [2]: < 10%
inhibition at 10 µM [2]: < 10%
inhibition at 1 µM [3]: < 10%
inhibition at 10 µM [3]: < 10%
inhibition at 1 µM [4]: < 10%
inhibition at 10 µM [4]: < 10%
inhibition at 1 µM ([5]; 1 µM): < 10%
% Inhibition at 10 µM ([5]; 10 µM): 54.8%
inhibition at 10 µM ([5]; 10 µM): > 50%
IC50 [6]: > 1500 nM
activity at 1 µM [7]: 107%
activity at 10 µM [7]: 104%
Aphthous ulcer, treatment-emergent adverse events ([8]; 10 mg n = 6, single oral dose): 0
Back pain, treatment-emergent adverse events ([8]; 10 mg n = 6, single oral dose): 1
Diarrhea, treatment-emergent adverse events ([8]; 10 mg n = 6, single oral dose): 0
Headache, treatment-emergent adverse events ([8]; 10 mg n = 6, single oral dose): 0
Hypercholesterolaemia, treatment-emergent adverse events ([8]; 10 mg n = 6, single oral dose): 0
Medical device site reaction, treatment-emergent adverse events ([8]; 10 mg n = 6, single oral dose): 0
Musculoskeletal discomfort, treatment-emergent adverse events ([8]; 10 mg n = 6, single oral dose): 0
Nasal congestion, treatment-emergent adverse events ([8]; 10 mg n = 6, single oral dose): 0
Oral herpes, treatment-emergent adverse events ([8]; 10 mg n = 6, single oral dose): 0
Viral upper respiratory tract infection, treatment-emergent adverse events ([8]; 10 mg n = 6, single oral dose): 0
Aphthous ulcer, treatment-emergent adverse events ([8]; 30 mg n = 6, single oral dose): 0
Back pain, treatment-emergent adverse events ([8]; 30 mg n = 6, single oral dose): 0
Diarrhea, treatment-emergent adverse events ([8]; 30 mg n = 6, single oral dose): 0
Headache, treatment-emergent adverse events ([8]; 30 mg n = 6, single oral dose): 1
Hypercholesterolaemia, treatment-emergent adverse events ([8]; 30 mg n = 6, single oral dose): 0
Medical device site reaction, treatment-emergent adverse events ([8]; 30 mg n = 6, single oral dose): 1
Musculoskeletal discomfort, treatment-emergent adverse events ([8]; 30 mg n = 6, single oral dose): 0
Nasal congestion, treatment-emergent adverse events ([8]; 30 mg n = 6, single oral dose): 0
Oral herpes, treatment-emergent adverse events ([8]; 30 mg n = 6, single oral dose): 1
Viral upper respiratory tract infection, treatment-emergent adverse events ([8]; 30 mg n = 6, single oral dose): 0
Aphthous ulcer, treatment-emergent adverse events [8, 12]: 0
Back pain, treatment-emergent adverse events [8, 12]: 1
Diarrhea, treatment-emergent adverse events [8, 12]: 2
Headache, treatment-emergent adverse events [8, 12]: 4
Hypercholesterolaemia, treatment-emergent adverse events [8, 12]: 2
Medical device site reaction, treatment-emergent adverse events [8, 12]: 2
Musculoskeletal discomfort, treatment-emergent adverse events [8, 12]: 0
Nasal congestion, treatment-emergent adverse events [8, 12]: 2
Oral herpes, treatment-emergent adverse events [8, 12]: 0
Viral upper respiratory tract infection, treatment-emergent adverse events [8, 12]: 2
Aphthous ulcer, treatment-emergent adverse events [8, 13]: 1
Back pain, treatment-emergent adverse events [8, 13]: 1
Diarrhea, treatment-emergent adverse events [8, 13]: 2
Headache, treatment-emergent adverse events [8, 13]: 0
Hypercholesterolaemia, treatment-emergent adverse events [8, 13]: 0
Medical device site reaction, treatment-emergent adverse events [8, 13]: 2
Musculoskeletal discomfort, treatment-emergent adverse events [8, 13]: 0
Nasal congestion, treatment-emergent adverse events [8, 13]: 0
Oral herpes, treatment-emergent adverse events [8, 13]: 1
Viral upper respiratory tract infection, treatment-emergent adverse events [8, 13]: 2
participants with clinically significant high cholesterol values ([8]; 100 mg fasted group): 2
participants with clinically significant high cholesterol values ([8]; 200 mg fasted group): one
Aphthous ulcer, treatment-emergent adverse events ([8]; 200 mg n = 6, single oral dose): 1
Back pain, treatment-emergent adverse events ([8]; 200 mg n = 6, single oral dose): 1
Diarrhea, treatment-emergent adverse events ([8]; 200 mg n = 6, single oral dose): 0
Headache, treatment-emergent adverse events ([8]; 200 mg n = 6, single oral dose): 0
Hypercholesterolaemia, treatment-emergent adverse events ([8]; 200 mg n = 6, single oral dose): 1
Medical device site reaction, treatment-emergent adverse events ([8]; 200 mg n = 6, single oral dose): 1
Musculoskeletal discomfort, treatment-emergent adverse events ([8]; 200 mg n = 6, single oral dose): 2
Nasal congestion, treatment-emergent adverse events ([8]; 200 mg n = 6, single oral dose): 0
Oral herpes, treatment-emergent adverse events ([8]; 200 mg n = 6, single oral dose): 0
Viral upper respiratory tract infection, treatment-emergent adverse events ([8]; 200 mg n = 6, single oral dose): 0
participants with Grade 2 or higher abnormal cholesterol values ([8]; combined JNJ-61803534 group): Fourteen
participants with TEAEs reasonably related to the study agent ([8]; combined JNJ-61803534 group (diarrhea)): 1
TEAEs leading to death, treatment-emergent severe adverse events, severe TEAEs or TEAEs leading to discontinuation ([8]; in vivo): no
safety and tolerability ([8]; single doses up to and including 200 mg): safe and well-tolerated
activity at 1 µM [9]: 109%
activity at 10 µM [9]: 102%
inhibition of IFNγ production [10]: no inhibition; also recorded: did not inhibit
activity at 1 µM [11]: 108%
activity at 10 µM [11]: 110%
